Experimental data taken from patent publication US10308644B2, “Heterocyclic compounds as immunomodulators” (Incyte Corporation, priority 2016, dated 2019).

Molecular target: PD-1/PD-L1 (Homo sapiens (Human), UniProt Q9NZQ7)
Assay: PD-1/PD-L1 Homogeneous Time-Resolved Fluorescence (HTRF) Binding Assay
Details: recombinant human PD-1 (3 nM) and PD-L1 (10 nM), 25° C., PBS pH 7.4
Outline: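 Fc-tagged human PD-1 (25-167, 3 nM) and His-tagged PD-L1 (19-238, 10 nM) preincubated with inhibitor 40 min in PBS pH 7.4, 0.05% Tween-20, 0.1% BSA, 1% DMSO, 25 °C. Binding detected by HTRF (Eu anti-IgG/APC anti-His, 665/620 nm) after 60 min; IC50 from percent control activity.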

PD-1/PD-L1, sequence (Q9NZQ7 19-238): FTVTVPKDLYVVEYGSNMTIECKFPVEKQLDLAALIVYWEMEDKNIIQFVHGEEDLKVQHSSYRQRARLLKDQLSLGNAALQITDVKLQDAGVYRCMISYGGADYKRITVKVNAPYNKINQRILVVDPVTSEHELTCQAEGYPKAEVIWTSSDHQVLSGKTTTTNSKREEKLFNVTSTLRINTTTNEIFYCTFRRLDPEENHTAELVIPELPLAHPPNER

| Structure (SMILES) | IC50 [nM] |
| --- | --- |
| Cc1c(Nc2nccc3cc(CN4CC[C@@H](O)C4)cnc23)cccc1-c1cccc(-c2nc3cc(CN[C@H]4CC[C@@H](C(=O)O)CC4)cc(C#N)c3o2)c1C [Example 172, cis-4-((7-cyano-2-(3′-(3-(((R)-3-hydroxypyrrolidin-1-yl)methyl)-1,7-naphthyridin-8-ylamino)-2,2′-dimethylbiphenyl-3-yl)benzo[d]oxazol-5-yl)methylamino) cyclohexanecarboxylic acid] | ≤ 10 |
| Cc1c(Nc2nccc3cc(CN4CC[C@@H](O)C4)cnc23)cccc1-c1cccc(-c2nc3cc(CN4CC[C@H](CC(=O)O)C4)cc(C#N)c3o2)c1C [Example 173, 2-((R)-1-((7-cyano-2-(3′-(3-(((R)-3-hydroxypyrrolidin-1-yl)methyl)-1,7-naphthyridin-8-ylamino)-2,2′-dimethylbiphenyl-3-yl)benzo[d]oxazol-5-yl)methyl)pyrrolidin-3-yl)acetic acid] | ≤ 10 |
| Cc1c(Nc2nccc3cc(CN4CC[C@@H](O)C4)cnc23)cccc1-c1cccc(-c2nc3cc(CN4CC[C@@H](CC(=O)O)C4)cc(C#N)c3o2)c1C [Example 174, 2-((S)-1-((7-cyano-2-(3′-(3-(((R)-3-hydroxypyrrolidin-1-yl)methyl)-1,7-naphthyridin-8-ylamino)-2,2′-dimethylbiphenyl-3-yl)benzo[d]oxazol-5-yl)methyl)pyrrolidin-3-yl)acetic acid] | ≤ 10 |
| Cc1c(Nc2nccc3cc(CN4CC[C@@H](O)C4)cnc23)cccc1-c1cccc(-c2nc3cc(CN[C@H]4CCC[C@H]4C(=O)O)cc(C#N)c3o2)c1C [Example 175, (1R,2S)-2-((7-cyano-2-(3′-(3-(((R)-3-hydroxypyrrolidin-1-yl)methyl)-1,7-naphthyridin-8-ylamino)-2,2′-dimethylbiphenyl-3-yl)benzo[d]oxazol-5-yl)methylamino) cyclopentanecarboxylic acid] | ≤ 10 |
| Cc1c(Nc2nccc3cc(CN4CC[C@@H](O)C4)cnc23)cccc1-c1cccc(-c2nc3cc(CN4CC5CC4CC5C(=O)O)cc(C#N)c3o2)c1C (stereo partly drawn) [Example 176, 2-((7-cyano-2-(3′-(3-(((R)-3-hydroxypyrrolidin-1-yl)methyl)-1,7-naphthyridin-8-ylamino)-2,2′-dimethylbiphenyl-3-yl)benzo[d]oxazol-5-yl)methyl)-2-aza bicyclo[2.2.1]heptane-5-carboxylic acid] | ≤ 10 |
| Cc1c(Nc2nccc3cc(CN4CC[C@@H](O)C4)cnc23)cccc1-c1cccc(-c2nc3cc(CN4CC5(CC(C(=O)O)C5)C4)cc(C#N)c3o2)c1C [Example 177, 2-((7-cyano-2-(3′-(3-(((R)-3-hydroxypyrrolidin-1-yl)methyl)-1,7-naphthyridin-8-ylamino)-2,2′-dimethylbiphenyl-3-yl)benzo[d]oxazol-5-yl)methyl)-2-azaspiro[3,3]heptane-6-carboxylic acid] | ≤ 10 |
| Cc1c(Nc2nccc3cc(CN4CC[C@@H](O)C4)cnc23)cccc1-c1cccc(-c2nc3cc(CN4CC5(C(=O)O)CC4C5)cc(C#N)c3o2)c1C [Example 178, (R)-2-((7-cyano-2-(3′-(3-((3-hydroxypyrrolidin-1-yl)methyl)-1,7-naphthyridin-8-ylamino)-2,2′-dimethylbiphenyl-3-yl)benzo[d]oxazol-5-yl)methyl)-2-aza bicyclo[2.1.1]hexane-4-carboxylic acid] | ≤ 10 |
| Cc1c(Nc2nccc3cc(CN4CC[C@@H](O)C4)cnc23)cccc1-c1cccc(-c2nc3cc(CN[C@H]4CCC[C@@H]4C(=O)O)cc(C#N)c3o2)c1C [Example 179, (1S,2S)-2-((7-cyano-2-(3′-(3-(((R)-3-hydroxypyrrolidin-1-yl)methyl)-1,7-naphthyridin-8-ylamino)-2,2′-dimethylbiphenyl-3-yl)benzo[d]oxazol-5-yl)methylamino)cyclopentanecarboxylic acid] | ≤ 10 |
| Cc1c(Nc2nccc3cc(CN4CC[C@@H](O)C4)cnc23)cccc1-c1cccc(-c2nc3cc(CN[C@H]4C[C@@H](C(=O)O)C4)cc(C#N)c3o2)c1C [Example 180, cis-3-((7-cyano-2-(3′-(3-(((R)-3-hydroxypyrrolidin-1-yl)methyl)-1,7-naphthyridin-8-ylamino)-2,2′-dimethylbiphenyl-3-yl)benzo [d]oxazol-5-yl)methylamino)cyclobutane carboxylic acid] | ≤ 10 |
| Cc1c(Nc2nccc3cc(CN4CC[C@@H](O)C4)cnc23)cccc1-c1cccc(-c2nc3cc(CN[C@H]4C[C@H](C(=O)O)C4)cc(C#N)c3o2)c1C [Example 181, trans-3-((7-cyano-2-(3′-(3-(((R)-3-hydroxypyrrolidin-1-yl)methyl)-1,7-naphthyridin-8-ylamino)-2,2′-dimethylbiphenyl-3-yl)benzo [d]oxazol-5-yl)methylamino)cyclobutane carboxylic acid] | ≤ 10 |

Other lines, results leading:

| IC50 [nM] | Structure (SMILES) |
| --- | --- |
| ≤ 10 | Cc1c(-c2nc3cc(CN4CC[C@@](C)(C(=O)O)C4)cc(C#N)c3o2)cccc1-c1cccc(NC(=O)c2nc3c(n2C)CC(C)N(C)C3)c1Cl (stereo partly drawn) [Example 161, (3R)-1-((2-(2′-chloro-2-methyl-3′-(1,5,6-trimethyl-4,5,6,7-tetrahydro-1H-imidazo[4,5-c]pyridine-2-carboxamido)biphenyl-3-yl)-7-cyanobenzo[d]oxazol-5-yl)methyl)-3-methylpyrrolidine-3-carboxylic acid] |
| ≤ 10 | Cc1c(-c2nc3cc(CN4CCC(C(=O)O)CC4)cc(C#N)c3o2)cccc1-c1cccc(NC(=O)c2nc3c(n2C)CC(C)N(C)C3)c1Cl (stereo not drawn) [Example 162, 1-((2-(2′-chloro-2-methyl-3′-(1,5,6-trimethyl-4,5,6,7-tetrahydro-1H-imidazo[4,5-c]pyridine-2-carboxamido)biphenyl-3-yl)-7-cyanobenzo[d]oxazol-5-yl)methyl)piperidine-4-carboxylic acid] |
| ≤ 10 | Cc1c(-c2nc3cc(CN4CC[C@@](C)(C(=O)O)C4)cc(C#N)c3o2)cccc1-c1cccc(NC(=O)c2nc3c(n2C)CC(C)NC3)c1Cl (stereo partly drawn) [Example 163, (3R)-1-((2-(2′-chloro-3′-(1,6-dimethyl-4,5,6,7-tetrahydro-1H-imidazo[4,5-c]pyridine-2-carboxamido)-2-methylbiphenyl-3-yl)-7-cyanobenzo[d]oxazol-5-yl)methyl)-3-methylpyrrolidine-3-carboxylic acid] |
| ≤ 10 | Cc1c(-c2nc3cc(CN4CCC(C(=O)O)CC4)cc(C#N)c3o2)cccc1-c1cccc(NC(=O)c2nc3c(n2C)CC(C)NC3)c1Cl (stereo not drawn) [Example 164, 1-((2-(2′-chloro-3′-(1,6-dimethyl-4,5,6,7-tetrahydro-1H-imidazo[4,5-c]pyridine-2-carboxamido)-2-methylbiphenyl-3-yl)-7-cyanobenzo[d]oxazol-5-yl)methyl)piperidine-4-carboxylic acid] |
| ≤ 10 | Cc1c(-c2nc3cc(CN4CC[C@@H](O)C4)cc(C#N)c3o2)cccc1-c1cccc(NC(=O)c2nc3c(n2C)CC(C)(C(=O)O)N(C)C3)c1Cl (stereo partly drawn) [Example 165, 2-(2-chloro-3′-(7-cyano-5-(((R)-3-hydroxypyrrolidin-1-yl)methyl)benzo[d]oxazol-2-yl)-2′-methylbiphenyl-3-ylcarbamoyl)-1,5,6-trimethyl-4,5,6,7-tetrahydro-1H-imidazo[4,5-c]pyridine-6-carboxylic acid] |
| ≤ 10 | Cc1c(Nc2nccc3cc(C4=NCCN4)cnc23)cccc1-c1cccc(-c2nc3cc(CN4CC[C@@H](C(=O)O)C4)cc(C#N)c3o2)c1C [Example 166, (R)-1-((7-cyano-2-(3′-(3-(4,5-dihydro-1H-imidazol-2-yl)-1,7-naphthyridin-8-ylamino)-2,2′-dimethylbiphenyl-3-yl)benzo[d]oxazol-5-yl)methyl)pyrrolidine-3-carboxylic acid] |
| ≤ 10 | Cc1c(Nc2nccc3cc(CCN4CC[C@@H](O)C4)cnc23)cccc1-c1cccc(-c2nc3cc(CN4CC[C@@H](C(=O)O)C4)cc(C#N)c3o2)c1C [Example 167, (R)-1-((7-cyano-2-(3′-(3-(2-((R)-3-hydroxypyrrolidin-1-yl)ethyl)-1,7-naphthyridin-8-ylamino)-2,2′-dimethylbiphenyl-3-yl)benzo[d]oxazol-5-yl)methyl)pyrrolidine-3-carboxylic acid] |
| ≤ 10 | Cc1c(Nc2nccc3cc(CN4CC[C@@H](O)C4)cnc23)cccc1-c1cccc(-c2nc3cc(CN4CC[C@@H](C(=O)O)C4)cc(C#N)c3o2)c1Cl [Example 168, (R)-1-((2-(2-chloro-3′-(3-(((R)-3-hydroxypyrrolidin-1-yl)methyl)-1,7-naphthyridin-8-ylamino)-2′-methylbiphenyl-3-yl)-7-cyanobenzo[d]oxazol-5-yl)methyl)pyrrolidine-3-carboxylic acid] |
| ≤ 10 | Cc1c(Nc2nccc3cc(CN4CC[C@@H](O)C4)cnc23)cccc1-c1cccc(-c2nc3cc(CN[C@H]4CC[C@@H](C(=O)O)C4)cc(C#N)c3o2)c1C [Example 169, (1R,3S)-3-((7-cyano-2-(3′-(3-(((R)-3-hydroxypyrrolidin-1-yl)methyl)-1,7-naphthyridin-8-ylamino)-2,2′-dimethylbiphenyl-3-yl)benzo[d]oxazol-5-yl)methylamino)cyclopentanecarboxylic acid] |
| ≤ 10 | Cc1c(Nc2nccc3cc(CN4CC[C@@H](O)C4)cnc23)cccc1-c1cccc(-c2nc3cc(CN[C@@H]4CC[C@H](C(=O)O)C4)cc(C#N)c3o2)c1C [Example 170, (1S,3R)-3-((7-cyano-2-(3′-(3-(((R)-3-hydroxypyrrolidin-1-yl)methyl)-1,7-naphthyridin-8-ylamino)-2,2′-dimethylbiphenyl-3-yl)benzo[d]oxazol-5-yl)methylamino)cyclopentanecarboxylic acid] |
| ≤ 10 | Cc1c(Nc2nccc3cc(CN4CC[C@@H](O)C4)cnc23)cccc1-c1cccc(-c2nc3cc(CNCCc4ccc(C(=O)O)cc4)cc(C#N)c3o2)c1C [Example 171, (R)-4-(2-((7-cyano-2-(3′-(3-((3-hydroxypyrrolidin-1-yl)methyl)-1,7-naphthyridin-8-ylamino)-2,2′-dimethylbiphenyl-3-yl)benzo[d]oxazol-5-yl)methylamino)ethyl)benzoic acid] |
